Results from BindingDB's records for doi:10.1021/jm00096a017 (Kyowa Hakko Kogyo, 1992).

Experiment: Compound was tested for its binding affinity at Thromboxane A2/ Prostaglandin H2 receptor by measuring its ability to displace [3H]U-46619 from guinea pig platelets

Compound | Ki [nM]
Cc1cc2ncn(CCC3c4ccccc4COc4ccc(C(=O)O)cc43)c2cc1C (centres undefined) | 18
O=C(O)c1ccc2c(c1)/C(=C/Cn1cnc3ccc(C(O)c4ccccc4)cc31)c1ccccc1CO2 (centres undefined) | 17
O=C(O)c1ccc2c(c1)/C(=C\Cn1cnc3ccccc31)c1ccccc1CO2 | 15
COc1cc(OC)c2ncn(C/C=C3\c4ccccc4COc4ccc(C(=O)O)cc43)c2c1 | 88
Cc1cc2ncn(C/C=C3\c4cc(C(=O)O)ccc4COc4ccccc43)c2cc1C | 1300
Cc1cc2ncn(C/C=C3\c4ccccc4COc4ccc(CC(=O)O)cc43)c2cc1C | 63
O=C(O)c1ccc2c(c1)/C(=C/Cn1cnc3cc(C(=O)O)ccc31)c1ccccc1CO2 | 30
O=C(O)c1ccc2c(c1)/C(=C/Cn1cnc(-c3ccccc3)c1-c1ccccc1)c1ccccc1CO2 | 164
Cc1cccc2c1ncn2C/C=C1\c2ccccc2COc2ccc(C(=O)O)cc21 | 17
Cc1ccc2ncn(C/C=C3\c4ccccc4COc4ccc(C(=O)O)cc43)c2c1 | 23
Cc1cc2ncn(C/C=C3\c4ccccc4COc4cc(C(=O)O)ccc43)c2cc1C | 1800
O=C(O)c1ccc2c(c1)/C(=C/Cn1cnc3cc4ccccc4cc31)c1ccccc1CO2 | 280
Cc1cc2ncn(C/C=C3/c4ccccc4COc4ccc(C(=O)O)cc43)c2cc1C | 64

Now from value to compound:

Ki [nM] | Compound
1.8 | O=C(O)c1ccc2c(c1)/C(=C/Cn1cnc3cc([N+](=O)[O-])ccc31)c1ccccc1CO2
6 | O=C(O)c1ccc2c(c1)/C(=C/Cn1cnc3cc(Cl)ccc31)c1ccccc1CO2
2.2 | O=C(O)c1ccc2c(c1)/C(=C/Cn1cnc3cc(C(F)(F)F)ccc31)c1ccccc1CO2
2.7 | O=C(O)c1ccc2c(c1)/C(=C/Cn1cnc3cc4c(cc31)OCO4)c1ccccc1CO2
15 | O=C(O)c1ccc2c(c1)/C(=C/Cn1cnc3ccc(Cl)cc31)c1ccccc1CO2
0.91 | O=C(O)c1ccc2c(c1)/C(=C/Cn1cnc3cc(C(=O)NCc4ccccc4)ccc31)c1ccccc1CO2
3.2 | COc1ccc2c(c1)ncn2C/C=C1\c2ccccc2COc2ccc(C(=O)O)cc21
8.3 | O=C(O)c1ccc2c(c1)/C(=C/Cn1cnc3cc(F)ccc31)c1ccccc1CO2
6.1 | COc1cc(OC)c2c(c1)ncn2C/C=C1\c2ccccc2COc2ccc(C(=O)O)cc21
3.4 | COc1cc2ncn(C/C=C3\c4ccccc4COc4ccc(C(=O)O)cc43)c2cc1OC
12 | COc1ccc2ncn(C/C=C3\c4ccccc4COc4ccc(C(=O)O)cc43)c2c1
15 | Cc1ccc2c(c1)ncn2C/C=C1\c2ccccc2COc2ccc(C(=O)O)cc21
3.6 | Cc1ccc2c(ncn2C/C=C2\c3ccccc3COc3ccc(C(=O)O)cc32)c1C
11 | O=C(O)c1ccc2c(c1)/C(=C/CNS(=O)(=O)c1ccccc1)c1ccccc1CO2
6.1 | O=C(O)c1ccc2c(c1)/C(=C/Cn1cnc3cc(C(O)c4ccccc4)ccc31)c1ccccc1CO2 (centres undefined)
2.7 | Cc1cc2ncn(C/C=C3\c4ccccc4COc4ccc(C(=O)O)cc43)c2cc1C [11-[2-(5,6-Dimethyl-benzoimidazol-1-yl)-ethylidene]-6,11-dihydro-dibenzo[b,e]oxepine-2-carboxylic acid (0.5H2O)]
